# Values quoted from earlier work, collected in patent US20020045179A1, “Toxicity typing using mesenchymal stem cells” (priority 2000, published 2002).
# Where two headings read alike, the source gives them in different places.
# Experiments:
# [1] = for liver toxicity (in words): predetermined toxicity stated in text of Example 2
# [2] = in vivo
# [3] = in vivo; remark: listed apart in the source
# [4] = in vivo; remark: listed apart in the source
# [5] = Table 1, predetermined toxicity by tissue/organ
structure (smiles),measurement,setting,value
CC(=O)Nc1ccc(O)cc1 [acetominophen],TOXICITIES LIVER,[1]; in vivo,+
CCC(=O)O[C@H]1[C@H](O[C@@H]2[C@@H](C)[C@H](O[C@H]3C[C@@](C)(OC)[C@@H](O)[C@H](C)O3)[C@@H](C)C(=O)O[C@H](CC)[C@@](C)(O)[C@H](O)[C@@H](C)C(=O)[C@H](C)C[C@@]2(C)O)O[C@H](C)C[C@@H]1N(C)C [erythromycin estolate],liver toxicity (in words),[1],known liver toxicity
COc1nc(C(Cl)(Cl)Cl)c(Cl)c(OC)c1Cl [penclomedine],TOXICITIES CNS,[2],+
c1ccc2c(c1)cc1ccc3cccc4ccc2c1c34 [benzo(a)pyrene],TOXICITIES CV,[3],+
CCOC(=O)C(C)(C)Oc1ccc(Cl)cc1 [clofibrate],TOXICITIES LIVER,[1]; [5],ntc
N.N.O=C([O-])C1(C(=O)[O-])CCC1.[Pt+2] [carboplatin],TOXICITIES GI,[4],+
N=C(N)NCCCCCCC(=O)NC(O)C(=O)NCCCCNCCCN (stereo not drawn) [deoxyspergualin],TOXICITIES CV,[3],+
CN(CCOc1ccc(CC2SC(=O)NC2=O)cc1)c1ccccn1 (stereo not drawn) [rosiglitazone],TOXICITIES LIVER,[1]; [5],ntc
Cc1c(C)c2c(c(C)c1O)CCC(C)(COc1ccc(CC3SC(=O)NC3=O)cc1)O2 (stereo not drawn) [troglitazone],liver toxicity (in words),[1],rare but severe liver toxicity
